Entries after “also recorded” stand apart in the source; their conditions may differ.
Experiments:
[1] = tested on: HeLa cells; experiment: Cell viability (CellTiter-Glo) and cell death, HeLa; format: cell-based; details: for cell death induced by treatment: HeLa (cervix carcinoma), 25µM; for viability compared to the control: HeLa, 100µM, 72h, CellTiter-Glo; for IC50: Homo sapiens, compound concentration reducing HeLa cell viability by 50%
Procedure: (§1) To test the anti-cancer activity of the compounds, several cancer cell lines, currently used as models for different epithelial cancers and leukemias, were treated with the indicated inhibitors. […] Every 24h, the cell culture medium was replaced by fresh compound-containing medium. 72h post treatment, cell were analyzed by adding 100µl CellTiter-Glo® assay reagent (Promega). Luminescence was measured with a LuminoskanAscent device (ThermoScientific). Cells treated with a corresponding amount of DMSO only were use as a control. The luminescence (equals cell viability) of said control was set to 100%.
IC50 value corresponds to compound concentration reducing HeLa cell viability by 50%. Topt is the time point post treatment when maximum nuclear export inhibition was observed by fluorescence microscopy. Table 4: Functional characteristics of nuclear export inhibitors
It was assessed whether the export inhibitors also affect the viability of non-malignant human cells, precluding their potential (pre)clinical use. 10^3 freshly isolated non-malignant primary human fibroblasts (HTF-8) or HeLa cells/well were seeded and 24h later treated with the indicated compounds (final concentration: 100µM). Every 24h cell culture medium was replaced by freshly prepared compound-containing medium. 72h post treatment the cells were analyzed by adding 100µl CellTiter-Glo® assay reagent, and luminescence measured with a LuminoskanAscent (ThermoScientific). Cells treated with DMSO only were used as a control. The fluorescence measured (equals cell viability) with said control was set to 100%.

[2] = tested on: SUP-B15; experiment: Cell death, SUP-B15; format: cell-based; details: SUP-B15 (B cell precursor ALL), 25µM
[3] = tested on: HIV-1 (strain NL4-3; CXCR-4 tropic); experiment: HIV-1 replication inhibition assay in infected Tzm-bl cells (RT activity in supernatant); format: cell-based; details: 25 or 50µM added 24h post infection, read 48h post infection
Procedure: The HIV-1 Rev protein transports unspliced and inclompletely spliced viral RNAs from the nucleus into the cytoplasm, crucial for viral replication and AIDS development (Pavlakis and Stauber, 1998; Stauber et al., 1995). […] 24h post infection, DMSO only (control) or compounds C3 or C5 (stock solution in DMSO) were added to a final concentration of 25 or 50µM. 24h later (= 48h post infection) the viral particles in the supernatant were quantified by measuring reverse transcriptase (RT) activity in the viral supernatant using the RT-Lenti Kit (Cavidi-Tech; Uppsala, Sweden) (see Fig. 6A).

[4] = tested on: HIV-1 Rev protein; experiment: Nuclear export of HIV-1 Rev-GFP in actinomycin D treated HeLa cells; format: cell-based; details: 25µM
Source text: The HIV-1 Rev protein transports unspliced and incompletely spliced viral RNAs from the nucleus into the cytoplasm (Stauber et al., 1995). As such, Rev's export function is crucial for viral replication and AIDS development (Pavlakis and Stauber, 1998; Stauber et al., 1995).

[5] = tested on: Survivin; experiment: Nuclear export of Survivin-GFP fusion transiently expressed in HeLa cells; format: cell-based; details: transient expression, 25µM
Procedure: The activity of compounds to inhibit the export of the oncologically relevant protein Survivin as well as of the HIV-1 Rev protein was analyzed.
Nuclear export of Survivin is crucial for its tumor promoting cytoprotective activity (Engels et al., 2007; Knauer et al., 2007a; Knauer et al., 2007b).

[6] = biological target: human CRM1 (Crm1-HA) (Homo sapiens, UniProt O14980); experiment: In vitro pull-down of Crm1-HA with GST-SurvivinNES-GFP beads; format: binding; details: preincubation 1mM, 30min at 4°C
Procedure: The binding of LMB and of compounds C3 and C5 to CRM1 was examined by in vitro pull-down assays as described by Stauber et al., 2006. Briefly, in vitro coupled transcription/translation was performed using the TNT reticulocyte lysate system (Promega, Madison, WI, USA) supplemented with methionine (Promega, Madison, WI, USA) and plasmid pCrm1_HA (1µg), encoding a hemagglutinin epitope-tagged version of human CRM1 (Crm1-HA), as the template. Equal amounts of the Crm1-HA TNT reaction were preincubated with either DMSO (negative control; 0.1%), LMB (400nM, final concentration), C3 (1 mM; final concentration) or C5 (1mM; final concentration) in binding-buffer containing 5mM MgCl2 (AppliChem, Darmstadt, Germany), 2mM GTP (PEQLAB, Erlangen, Germany), 50mM Hepes pH 7.9 (AppliChem, Darmstadt, Germany), 200mM KCI (AppliChem, Darmstadt, Germany), 0.4% Tween 20 (AppliChem, Darmstadt, Germany), supplemented with complete protease inhibitor cocktail (Roche, Mannheim, Germany) for 30min at 4°C. Subsequently, GST-Sepharose beads loaded with 25µg recombinant GST-SurvivinNES-GFP and 5µg GST-RanQ96L were added to each drug-treated TNT reaction. Recombinant GST-SurvivinNES-GFP and GST-RanQ96L were purified from bacteria as described by Stauber et al., 2006. Pull-down was performed for 4h at 4°C in a rotating wheel. Samples were then centrifuged (3500rpm, 1min, 4°C) to recover the GST-SurvivinNES-GFP beads with bound Crm1-HA. Beads were washed three times with binding-buffer (500µl each washing step, 3500rpm, 1min, 4°C). Finally, bound proteins were eluted by adding 25µl 2xSDS-sample buffer (250mM Tris-HCl pH 6.8; 2% w/v SDS, 20% glycerol, 2% β-mercaptoethanol, 0.002% w/v bromophenol blue) and incubating at 95°C for 2min. Samples were separated by SDS-gelelectrophoresis and analyzed by immunoblot analysis as described by Stauber et al., 2006. Crm1-HA was detected with HA specific antibodies (MMS-101R, Covance, New Jersey, USA). GFP served as the loading control and was visualized with GFP specific antibodies (sc-8334, Santa Cruz Biotechnology, Heidelberg, Germany).

[7] = tested on: K562; experiment: AlamarBlue viability assay, K562, alone and combined with imatinib; format: cell-based, human; details: K562, 25µM, 72h, single agent
Procedure: The BCR-ABL^+ human chronic myeloid leukemia (CML) cell line K562 was used to investigate whether combining export inhibitors with chemotherapeutic drugs currently used in the clinics enhances drug-induced cancer cell death.
72h post treatment, cells were analyzed by adding 10µl of AlamarBlue® (Invitrogen). Fluorescence (538/600nm) was measured with a LuminoskanAscent (ThermoScientific). Cells treated with DMSO only were used as a control. The fluorescence measured (equals cell viability) with said control was set to 100%.

[8] = tested on: A431; experiment: Cell viability (CellTiter-Glo) and cell death, A431; format: cell-based; details: for cell death induced by treatment: A431 (epidermoid carcinoma), 25µM; for viability compared to the control: A431, 100µM, 72h, CellTiter-Glo
Procedure: as §1

[9] = tested on: FaDu; experiment: Cell viability (CellTiter-Glo) and cell death, FaDu; format: cell-based; details: for cell death induced by treatment: FaDu (head and neck cancer), 25µM; for viability compared to the control: FaDu, 100µM, 72h, CellTiter-Glo
Procedure: as §1

[10] = In vivo toxicity in nude mice; details: male NMRI nu/nu mice, i.p. three times every second day, 200µl 1mM
Procedure: To investigate whether the nuclear export inhibitors cause toxic effects in vivo, six-week-old male NMRI nu/nu mice were injected three times intraperitoneally (i.p.) every second day with 200µl 1mM C3 or C5 (5 mice each), or with 200µl DMSO only (control, 2 mice).

[11] = tested on: K562 (Bcr-Abl^+); experiment: Cell death, K562; format: cell-based; details: K562 (Bcr-Abl^+) (chronic myeloid leukemia, CML), 25µM

human CRM1 (Crm1-HA), sequence (O14980 whole entry): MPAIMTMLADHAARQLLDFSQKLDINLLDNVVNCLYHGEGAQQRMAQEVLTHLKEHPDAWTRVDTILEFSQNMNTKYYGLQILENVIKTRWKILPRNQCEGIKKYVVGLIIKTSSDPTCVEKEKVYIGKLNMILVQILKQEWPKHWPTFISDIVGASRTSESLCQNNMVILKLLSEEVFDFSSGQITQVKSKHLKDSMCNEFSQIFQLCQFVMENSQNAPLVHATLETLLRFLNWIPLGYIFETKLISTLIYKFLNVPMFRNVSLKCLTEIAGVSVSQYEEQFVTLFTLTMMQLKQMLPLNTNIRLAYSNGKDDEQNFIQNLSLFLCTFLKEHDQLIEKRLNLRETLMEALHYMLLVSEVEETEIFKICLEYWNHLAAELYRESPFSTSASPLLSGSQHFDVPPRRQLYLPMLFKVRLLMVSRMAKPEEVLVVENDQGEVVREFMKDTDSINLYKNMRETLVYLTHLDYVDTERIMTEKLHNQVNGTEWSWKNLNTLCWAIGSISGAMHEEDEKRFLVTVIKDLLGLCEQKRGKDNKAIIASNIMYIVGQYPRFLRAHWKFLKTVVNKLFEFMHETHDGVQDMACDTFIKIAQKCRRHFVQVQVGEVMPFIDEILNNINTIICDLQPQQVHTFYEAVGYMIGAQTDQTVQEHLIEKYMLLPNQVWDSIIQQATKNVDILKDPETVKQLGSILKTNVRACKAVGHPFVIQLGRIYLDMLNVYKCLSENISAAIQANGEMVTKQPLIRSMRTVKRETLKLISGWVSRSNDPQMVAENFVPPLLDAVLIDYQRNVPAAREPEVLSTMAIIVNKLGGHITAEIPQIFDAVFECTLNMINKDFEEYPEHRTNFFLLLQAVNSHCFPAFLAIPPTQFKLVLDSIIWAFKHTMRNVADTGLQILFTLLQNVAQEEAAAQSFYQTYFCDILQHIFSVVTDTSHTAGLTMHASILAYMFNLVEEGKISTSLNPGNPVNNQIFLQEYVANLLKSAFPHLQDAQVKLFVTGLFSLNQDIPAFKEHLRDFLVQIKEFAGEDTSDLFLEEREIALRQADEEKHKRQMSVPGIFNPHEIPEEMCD

| Structure (SMILES) | cell death induced by treatment [1] | viability compared to the control [1] | IC50 [1] [µM] | cell death induced by treatment [2] | RT-activity in the viral supernatant compared to the control [3] | Localization of HIV-1 Rev-GFP (nuclear export of HIV-1 Rev protein) [4] | Localization of Survivin-GFP fusion (nuclear export of Survivin) [5] | interaction of Crm1-HA with the export substrate GST-SurvivinNES-GFP [6] | cancer cell death (AlamarBlue viability) [7] | cell death induced by treatment [8] | viability compared to the control [8] | cell death induced by treatment [9] | viability compared to the control [9] | other signs of in vivo toxicity [10] | weight loss compared to the DMSO control [10] | cell death induced by treatment [11] |
| --- | --- | --- | --- | --- | --- | --- | --- | --- | --- | --- | --- | --- | --- | --- | --- | --- |
| O=C(NC1CS(=O)(=O)CC1Cl)c1cccc(C(F)(F)F)c1 (centres unmarked) [Compound C5, N-(4-chloro-1,1-dioxothiolan-3-yl)-3-(trifluoromethyl)benzamide] | cell death | significantly reduced viability; also recorded: significantly affect the viability | 17 | cell death | significantly reduced the RT-activity | inhibited; also recorded: restored the nuclear accumulation | inhibited; also recorded: accumulated in the nucleus | did not affected the CRM1 binding | caused cancer cell death | cell death | significantly reduced viability | cell death | significantly reduced viability | no significant weight loss (see Figure 5) or other signs of in vivo toxicity were observed | no significant weight loss | cell death |
| NC(=O)c1c(NC(NC(=O)c2ccccc2F)(C(F)(F)F)C(F)(F)F)sc2c1CCCC2 [Compound C3, 2-[[1,1,1,3,3,3-hexafluoro-2-[(2-fluorobenzoyl)amino]propan-2-yl]amino]-4,5,6,7-tetrahydro-1-benzothiophene-3-carboxamide] | cell death | significantly reduced viability; also recorded: significantly affect the viability | 38 | cell death | significantly reduced the RT-activity | inhibited; also recorded: restored the nuclear accumulation | inhibited; also recorded: accumulated in the nucleus | did not affected the CRM1 binding | caused cancer cell death | cell death | significantly reduced viability | cell death | significantly reduced viability | no significant weight loss (see Figure 5) or other signs of in vivo toxicity were observed | no significant weight loss | cell death |
